This is an account of results in ChEMBL document CHEMBL1201862, “PubChem BioAssay data set” (2004).

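Interpolation was linear, between the two tested concentrations surrounding the appropriate level; five concentrations were tested over 48 hours in 96-well plates. Here, GI50 denotes the concentration required for 50% inhibition of growth.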 Activity calls are given as the source filed them. Cut-off read from the data, not from the text of the source: active = GI50 up to about 1.1 µM and inactive = higher.

Holding throughout (assay): inhibition of tumour cell growth, NCI panel, 48 h
The subject of experiment [1] is SNB-75.
For experiment [2], the system named is NCI-H522.
Experiment [3] concerns NCI-H226.
For experiment [4], the system named is SK-MEL-28.
Experiment [5] relates to BT-549.
Experiment [6] deals with HCC 2998.
The test system of experiment [7] is SNB-19.
Experiment [8] concerns MDA-MB-231.
Experiment [9] has as its system SR.
Experiment [10] concerns ACHN.
Experiment [11] concerns MOLT-4.
For experiment [12], the system named is NCI/ADR-RES.
Experiment [13] has as its system HT-29.
For experiment [14], the system named is MDA-N.
Experiment [15] deals with IGROV-1.
The test system of experiment [16] is SK-MEL-5.
For experiment [17], the system named is Hs-578T.
Experiment [18] relates to T47D.
Experiment [19] has as its system HCT-116.
In experiment [20] the test system is PC-3.

Take `CC12c3c4cccc3Oc3cc(N)cc(c31)Oc1cc(N)cc(c12)O4`: the GI50 is 3.77 µM (inactive) in experiment [1]; 2.24 µM (inactive) in experiment [2]; 5.62 µM (inactive) in [3]; 6.21 µM (inactive) in [4]; 3.84 µM (inactive) in experiment [5]; 4.61 µM (inactive) in experiment [6]. Further, the GI50 in experiment [7] was 7.14 µM (inactive); in [8], 3.5 µM (inactive); in experiment [9], 6.22 µM (inactive); in experiment [10], 11.1 µM (inactive); in experiment [11] it was 5.13 µM (inactive); in experiment [12] it was 0.953 µM (active). In addition, the GI50 was 2.01 µM (inactive) in [13]; 1.31 µM (inactive) in [14]; 3.44 µM (inactive) in [15]; 3.3 µM (inactive) in experiment [16]; 6.18 µM (inactive) in experiment [17]; 9.98 µM (inactive) in [18]. Moreover, the figures for the GI50 in experiment [19] and in experiment [20] were 3.14 µM (inactive) and 3.58 µM (inactive), respectively.
In the case of `COc1cccc(/C=C2\SC(=S)N(/C=C3\C(=O)Oc4ccccc4C3=O)C2=O)c1O`, the GI50 is 19.8 µM (inactive) in experiment [1]; 33.3 µM (inactive) in experiment [2]; > 100 µM (inactive) in experiment [3]; 40.4 µM (inactive) in experiment [4]; 20 µM (inactive) in experiment [5]; 28.8 µM (inactive) in [6]. In addition, the GI50 in experiment [7] was 41.9 µM (inactive); in experiment [8], 33.2 µM (inactive); in experiment [9] it was 30.6 µM (inactive); in [10] it was 46 µM (inactive); in experiment [11], 39.1 µM (inactive); in [12], 41 µM (inactive). Moreover, the GI50 in experiment [13] was 78.3 µM (inactive); in [14] it was 32.8 µM (inactive); in [15], 59.2 µM (inactive); in experiment [16], 35.8 µM (inactive); in [17], 25.5 µM (inactive); in experiment [18], 48.6 µM (inactive). The GI50 in experiment [19] was 56.9 µM (inactive); in experiment [20], 51.8 µM (inactive).
With `O=C1N[C@H]2C(=O)c3c(Br)sc(Br)c3[C@H]2O1`, the GI50 in experiment [1] was 16.5 µM (inactive); in [2], 1.55 µM (inactive); in experiment [3] it was 18.1 µM (inactive); in experiment [4], 3.41 µM (inactive); in experiment [5], 14.5 µM (inactive); in experiment [6], 11.7 µM (inactive). The GI50 is 15.9 µM (inactive) in [7]; 8.83 µM (inactive) in experiment [8]; 1.87 µM (inactive) in experiment [9]; 6.78 µM (inactive) in [10]; 2.25 µM (inactive) in experiment [11]; 13.4 µM (inactive) in [12]. The GI50 in experiment [13] is 2.47 µM (inactive); in [14], 7.01 µM (inactive); in experiment [15], 11.4 µM (inactive); in [16], 14 µM (inactive); in experiment [17] it was 18.7 µM (inactive); in experiment [18], 14.3 µM (inactive). Besides, the values for the GI50 in experiment [19] and in experiment [20] were 2.77 µM (inactive) and 4.95 µM (inactive), respectively.
For the compound `CC1=CC(=O)[C@@H](O)[C@]2(C)[C@H]3[C@@]4(O)OC[C@]35[C@H]([C@@H](C)[C@H]4O)[C@@H](O)C(=O)O[C@@H]5C[C@@H]12`, the GI50 in experiment [1] was 0.0706 µM (active); in experiment [2], 0.181 µM (active); in experiment [3], 0.194 µM (active); in [4], 0.156 µM (active); in experiment [5] it was 0.318 µM (active); in experiment [6], 0.227 µM (active). Besides, the GI50 was 0.115 µM (active) in experiment [7]; 0.252 µM (active) in experiment [8]; 77.6 µM (inactive) in experiment [9]; 0.348 µM (active) in [10]; 1.55 µM (inactive) in experiment [11]; 2.29 µM (inactive) in [12]. Moreover, the GI50 in [13] is 0.387 µM (active); in experiment [14], 0.213 µM (active); in experiment [15], 0.106 µM (active); in experiment [16] it was 0.118 µM (active); in experiment [17] it was 0.195 µM (active); in experiment [18] it was 0.225 µM (active). Also, the GI50 in experiment [19] was 0.0428 µM (active); in [20] it was 0.293 µM (active).
